# Experimental data published in article PMC8406801, “Naringenin Inhibits Platelet Activation and Arterial Thrombosis Through Inhibition of Phosphoinositide 3-Kinase and Cyclic Nucleotide Signaling” (Frontiers in Pharmacology, 2021).
# Several values for one entry are separate records, joined by “and”; a condition that tells them apart may be missing. Identical values can stand only once.
# Experiments:
# [1] = tested on: carotid arterial thrombus; assay: FeCl3-induced carotid arterial thrombus model in rats; type: in vivo, rat; conditions: oral 7.875 mg/kg for 7 days
# Experimental: To determine the effects of naringenin on thrombogenesis, a FeCl3-induced carotid arterial thrombus model was performed as reported previously with some modifications ([Eckly et al., 2011]). […] The rats were anaesthetized using 1% pentobarbital sodium salt and fixed supinely after the last administration. The left carotid artery was exposed and thrombosis was induced by applying a Whatman filter paper (5 mm × 1 mm) saturated with 10% (w/v) FeCl3 on the top of the left carotid artery for 5 min. […] Time to occlusion of the carotid artery was defined as a blood flow of 0 ml/min for 3 min. […] At the end of the experiment, the left carotid artery was dissected. A haematoxylin and eosin stain was performed on the artery.
# [2] = tested on: Akt Ser473 phosphorylation; assay: Ex vivo immunoblotting of phospho-Akt (Ser473) in ADP-stimulated PRP of treated rats; set-up: species or system rat; conditions: clopidogrel group, ex vivo; Figure 8C
# Experimental: (§1) Male SD rats were randomly divided into 5 groups with 6 rats in each group. […] Sixty minutes after the last sample treatment, blood was drawn from the abdominal aorta of rats into the siliconized vacutainers containing 1:9 (v/v) 3.8% sodium citrate. The collected blood was centrifuged at 100 × g for 10 min at room temperature to obtain PRP. […] The platelet counts of PRP were adjusted to 4×10^8 cells/mL using PPP. PRP was incubated for 5 min at 37°C and then stimulated by ADP (5 μM). The maximum platelet aggregation rate was determined as mentioned above.
# (§2) For in vitro platelet aggregation, aliquots of washed platelets were preincubated with vehicle or various concentrations of naringenin for 5 min and stimulated with ADP (10 μmol/L) under stirring at 37°C for 5 min. For ex vivo platelet aggregation, PRP was incubated at 37°C for 5 min and stimulated with ADP (5 μmol/L) under stirring at 37 °C. The platelet aggregation was terminated by adding ethylenediaminetetraacetic acid (EDTA; 10 mM). Total protein was prepared using RIPA lysis buffer and protein content was determined by bicinchoninic acid (BCA) protein assay kit. Equal amounts of platelet proteins (30 μg) were separated on 10% SDS polyacrylamide gel electrophoresis (SDS-PAGE) and then transferred to poly vinylidene difluoride (PVDF) membranes and subjected to western blot. Blots were blocked with TBS-Tween 20 containing 5% BSA and probed with primary antibodies diluted in blocking solution at 4°C overnight followed by incubation with the corresponding HRP secondary antibodies. The protein bands were visualized using enhanced chemiluminescence (ECL).
# (§3) Blood was collected and PRP was obtained after the last treatment. Platelet aggregation was induced by ADP (5 μmol/L) (A). Data are expressed as means ± SD (n = 6). After ADP stimulation, platelet proteins were then extracted and analyzed by immunoblotting using PI3Kp110β antibody (B) and phospho-specific antibodies such as Akt^Ser473 (C), Akt^Thr308 (D) and ERK1/2^Thr202/Tyr204 (E). Total level of GAPDH was measured on each sample as a loading control. The blots shown are representative of three separate experiments. The relative protein expression levels were quantified by ImageJ 1.47v software. The level of relative protein expression obtained with vehicle control was taken as 1. R represents the level of relative protein expression in resting platelets. Data are expressed as means ± SD (n = 3). *p < 0.05, **p < 0.01, ***p < 0.001 compared with the vehicle control group (Con).
# (§4) To further investigate the antiplatelet mechanisms of naringenin ex vivo, several signaling molecules such as PI3Kp110β, Akt and ERK were detected. After oral administration of naringenin (200, 400, and 800 mg/kg) to rats for 7 days, rat PRP was prepared and stimulated by ADP (5 μmol/L), and platelets were lysed to determine protein phosphorylation levels using western blot.
# PI3Kp110β = assay: Ex vivo immunoblotting of PI3Kp110β in ADP-stimulated PRP of treated rats; set-up: species or system rat; conditions: clopidogrel group, ex vivo; Figure 8B
# Experimental: as §1, §2, §3, §4
# tail bleeding = conditions: mouse, in vivo, po, 11.375 mg/kg
# Experimental: Sixty minutes after the last administration, mice were anaesthetized with 1% pentobarbital sodium salt and placed on a 37°C heating pad. The tail was transected at a site 3 mm proximal to the tip and immediately immersed into saline kept at 37°C. The time to bleeding cessation (defined as no bleeding for 30 s) was measured. When the bleeding time lasted longer than 10 min, the bleeding was stopped, and the bleeding time was recorded as 10 min.
# [3] = tested on: Akt Thr308 phosphorylation; assay: Ex vivo immunoblotting of phospho-Akt (Thr308) in ADP-stimulated PRP of treated rats; set-up: species or system rat; conditions: clopidogrel group, ex vivo; Figure 8D
# Experimental: as §1, §2, §3, §4
# [4] = tested on: Akt Ser473 phosphorylation; assay: Immunoblotting of phospho-Akt (Ser473) in ADP-stimulated washed platelets; type: cell-based, rat; conditions: Figure 5B: ADP 10 μM, LY294002 5 μM alone, single replicates
# Experimental: as §2
# FIGURE 4 Naringenin inhibits PI3K-mediated signaling in ADP-induced platelets. Washed rat platelets were preincubated without or with naringenin at 37°C for 5 min, and then stimulated with ADP (10 μmol/L) under stirring for 5 min. Platelet proteins were then extracted and analyzed by immunoblotting using PI3Kp110β antibody (A) and phospho-specific antibodies such as Akt^Ser473 (B), Akt^Thr308 (C), ERK1/2^Thr202/Tyr204 (D) and GSK3β^Ser9 (E). Total level of GAPDH was measured on each sample as a loading control. The blots shown are representative of three separate experiments. The relative protein expression levels were quantified by ImageJ 1.47v software. The level of relative protein expression obtained with vehicle control (0 μM) was taken as 1. R represents the level of relative protein expression in resting platelets. Data are expressed as means ± SD (n = 3). *p < 0.05, **p < 0.01, ***p < 0.001 compared with the vehicle control group.
# FIGURE 5 Effects of naringenin combined with PI3K pan inhibitor LY294002 on platelet aggregation and Akt phosphorylation. Washed rat platelets were preincubated with naringenin (200 μmol/L) alone, the PI3K pan inhibitor LY294002 (5 μmol/L) alone or both for 5 min prior to ADP (10 μmol/L) activation. After stimulation with ADP, platelet aggregation was quantified and expressed as a percentage (A). Data are expressed as means ± SD (n = 6). ***p < 0.001 compared with the ADP-treated group, ^### p < 0.001 compared with naringenin alone or LY294002 alone. Platelet proteins were then extracted and specific antibodies were used to measure the level of total and phosphorylated Akt (B). The blots shown are representative of three separate experiments. The relative protein expression levels were quantified by ImageJ 1.47v software. The level of phosphorylation obtained in the ADP-treated group was taken as 1. Data are expressed as means ± SD (n = 3). ***p < 0.001 compared with the ADP-treated group, ^### p < 0.001 compared with naringenin alone or LY294002 alone.
# washed rat platelets = assay: ADP (10 μM)-induced aggregation of washed rat platelets; type: cell-based; conditions: Figure 5A: washed platelets, ADP 10 μM, LY294002 5 μM alone; single replicates
Structure (SMILES),vessel occlusion time of rats [1],"Occlusion time ([1]; 10% FeCl3, single animals, no occlusion within 20 min recorded as 20 min, 7.875 mg/kg)",p-Akt Ser473 / t-Akt (Fold to Control) [2],p-Akt Ser473 / t-Akt (raw data) [2],PI3Kp110β / GAPDH (Fold to Control) (PI3Kp110β),PI3Kp110β / GAPDH (raw data) (PI3Kp110β),effect on tail bleeding time (tail bleeding),p-Akt Thr308 / t-Akt (Fold to Control) [3],p-Akt Thr308 / t-Akt (raw data) [3],p-Akt Ser473 / t-Akt ([4]; raw data),p-Akt Ser473 / t-Akt (Fold to ADP only) [4],Aggregation (%) (washed rat platelets)
"COC(=O)[C@H](c1ccccc1Cl)N1CCc2sccc2C1 [Clopidogrel, clopidogrel, reference compound]",considerably delayed,18.3 min and 20.0 min,0.1574 and 0.1140 and 0.1683,0.1750 and 0.1267 and 0.1870,0.8304 and 0.8095 and 1.1247,0.4069 and 0.3966 and 0.5511,markedly extended,0.3303 and 0.3457 and 0.2827,0.2780 and 0.2909 and 0.2379,,,
"O=c1cc(N2CCOCC2)oc2c(-c3ccccc3)cccc12 [LY294002, reference compound]",,,,,,,,,,0.3729 and 0.2624 and 0.3579,0.4284 Fold to ADP only and 0.3015 Fold to ADP only and 0.4113 Fold to ADP only,47.5% and 35.4% and 37.3% and 29.8% and 45.4% and 28.0%
